Reference: US8673904B2, “Epoxide inhibitors of cysteine proteases” (The Board of Trustees of the Leland Stanford Junior …, priority 2006, dated 2014)

Legend:
CatB = biological target: T1, CatB (Rattus norvegicus, UniProt P00787); assay: IC50 by competition with radiolabeled general cathepsin probe DCG-04 in rat liver lysate; type: biochemical; conditions: 1 mg/ml rat liver lysate, inhibitor 20 minutes, then DCG-04 1 hour
T1 construct: from tissue; host or cells: rat liver lysate / homogenate
Procedure: (§1) Also included in the table for comparison are known compounds JPMOEt and JPMOH (also known as JPM-565). See Meara and Rich, J. Med. Chem. 39:3357-3366, 1996; Bogyo et al, Chem. Biol. 7:27-38, 2000; and Joyce et al., Cancer Cell 5:443-453, 2004. The table also lists cathepsin targets and measured IC50 values for specific compounds. To determine these values, 1 mg/ml of rat liver lysate was incubated with a series of concentrations of the inhibitor for 20 minutes. Then, 1 ul of a radiolabled general cathepsin probe, DCG-04, was added to the solutions and incubated for 1 hour. After fixing and drying the gel, the residual enzyme activity was measured using ImageJ software. The measurements were then transferred to GraphPad Prism 4 to calculate the IC50 values.

CatC = biological target: T2, CatC (Rattus norvegicus, UniProt P80067); assay: as above; type: biochemical; conditions: 1 mg/ml rat liver lysate, inhibitor 20 minutes, then DCG-04 1 hour
T2 construct: from tissue; host or cells: rat liver lysate
T2 sequence (P80067 25-462): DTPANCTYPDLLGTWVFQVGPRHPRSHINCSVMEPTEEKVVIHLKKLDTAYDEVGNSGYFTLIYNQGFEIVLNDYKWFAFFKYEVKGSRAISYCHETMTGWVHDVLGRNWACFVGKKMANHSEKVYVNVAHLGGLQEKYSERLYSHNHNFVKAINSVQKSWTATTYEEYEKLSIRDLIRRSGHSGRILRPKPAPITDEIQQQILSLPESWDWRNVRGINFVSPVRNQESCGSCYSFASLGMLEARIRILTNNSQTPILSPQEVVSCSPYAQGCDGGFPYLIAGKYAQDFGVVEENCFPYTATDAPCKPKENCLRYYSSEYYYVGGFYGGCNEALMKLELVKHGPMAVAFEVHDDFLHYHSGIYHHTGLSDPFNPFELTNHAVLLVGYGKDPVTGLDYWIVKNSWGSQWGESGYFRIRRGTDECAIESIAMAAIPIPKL
Procedure: as §1

CatH = biological target: T3, CatH (Rattus norvegicus, UniProt P00786); assay: as above; type: biochemical; conditions: 1 mg/ml rat liver lysate, inhibitor 20 minutes, then DCG-04 1 hour
T3 construct: from tissue; host or cells: rat liver lysate
T3 sequence (P00786 96-333): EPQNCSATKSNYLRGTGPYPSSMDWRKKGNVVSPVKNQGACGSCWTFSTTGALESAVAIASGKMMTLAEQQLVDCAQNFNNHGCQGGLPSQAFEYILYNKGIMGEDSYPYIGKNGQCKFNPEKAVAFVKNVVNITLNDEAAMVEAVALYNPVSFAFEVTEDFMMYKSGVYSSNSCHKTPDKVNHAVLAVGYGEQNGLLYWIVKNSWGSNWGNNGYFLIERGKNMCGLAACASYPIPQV
Procedure: as §1

CatZ (Cathepsin Z) = biological target: T4, CatZ (Cathepsin Z) (Rattus norvegicus, UniProt Q9R1T3); assay: as above; type: biochemical; conditions: 1 mg/ml rat liver lysate, inhibitor 20 minutes, then DCG-04 1 hour
T4 construct: from tissue; host or cells: rat liver lysate
Procedure: as §1

cathepsin targets = assay: Cathepsin targets of the compounds (Table 4); type: biochemical, rat; conditions: cathepsin target(s) inhibited; General = all cathepsins
Procedure: as §1

cathepsin B = biological target: T5, cathepsin B (Rattus norvegicus, UniProt P00787); assay: Competition in rat liver homogenates, 125I-labeled JPM-OEt labeling; type: biochemical; conditions: FIG. 2, rat liver homogenates
T5 construct: from tissue; host or cells: rat liver lysate / homogenate
Procedure: (§2) The library compounds all contained a tyrosine residue at the R3 position. They contained either a leucine residue (top and middle panels) or a 4-methylphenylalanine residue (bottom panel) at the A2 position. The amine at R1 is indicated above each panel, with numbering as defined in Table 1. Samples were analyzed by SDS-PAGE followed by autoradiography. Controls (C) are shown where DMSO was added in place of the inhibitor. The parent compounds JPM-OEt (Et) and JPM-565 (OH) are also included as positive controls. Note the loss of reactivity for all (2R,3R) compounds and the change in specificity of JPM analogs in which the (2R,3R) (middle panel—OH and Et) is used in place of the (2S,3S) (top panel—OH and Et) epoxides.
(§3) Joyce et al., Cancer Cell 5:443-453, 2004.
(§4) FIGS. 3 and 4 show additional competition assays with other compounds of the invention at various concentrations. The compounds were added to total rat liver extracts at the indicated concentrations, as described above, and the mixtures were subsequently treated with ^125I-labeled JPM-OEt to label proteins with residual activity. The in vivo pharmacokinetic properties, potency, and selectivity of some of these compounds are further described in Sadaghiani et al., Chem. Biol. 14:499-511, 2007, which is incorporated herein by reference in its entirety.

other cathepsin targets = assay: Competition/profiling in total rat liver extracts, 125I-labeled JPM-OEt labeling; type: biochemical; conditions: FIG. 2, at concentrations as high as 50 micromolar
Procedure: as §2, §3, §4

T1 sequence (P00787 80-333): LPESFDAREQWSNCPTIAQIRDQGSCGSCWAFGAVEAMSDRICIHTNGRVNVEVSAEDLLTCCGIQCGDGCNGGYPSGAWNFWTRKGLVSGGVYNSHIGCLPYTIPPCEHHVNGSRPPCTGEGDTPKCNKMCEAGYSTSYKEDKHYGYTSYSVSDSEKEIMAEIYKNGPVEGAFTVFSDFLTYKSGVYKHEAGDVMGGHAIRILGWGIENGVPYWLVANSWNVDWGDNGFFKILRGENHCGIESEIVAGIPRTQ
T4 sequence (Q9R1T3 64-306): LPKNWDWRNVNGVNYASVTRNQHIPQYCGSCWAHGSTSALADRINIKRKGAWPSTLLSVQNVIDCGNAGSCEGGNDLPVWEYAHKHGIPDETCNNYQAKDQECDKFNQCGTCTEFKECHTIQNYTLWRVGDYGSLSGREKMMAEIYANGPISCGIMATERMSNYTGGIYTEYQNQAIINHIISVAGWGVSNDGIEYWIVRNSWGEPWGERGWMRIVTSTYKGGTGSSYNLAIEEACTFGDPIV
T5 sequence (P00787 80-333): as the sequence (P00787 80-333) above

Row | SMILES | IC50 (CatB) [nM] | IC50 (CatC) [µM] | IC50 (CatH) [µM] | IC50 (CatZ (Cathepsin Z)) [nM] | Target (cathepsin targets) | potency for cathepsin B compared to parent compound JPM-565 (cathepsin B) | activity against other cathepsin targets (other cathepsin targets)
1 | CC(C)C[C@H](NC(=O)C1OC1C(=O)NCCc1ccc(O)cc1)C(=O)N[C@@H](Cc1ccc(O)cc1)C(N)=O (single isomer, unassigned) [Compound 46] | 10 | > 50 | > 50 | > 10000 | Cat B | retain similar potency for cathepsin B compared to parent compound JPM-565 | little or no activity against other cathepsin targets
2 | Cc1ccc(C[C@H](NC(=O)[C@H]2OC2C(=O)NCC(=O)O)C(=O)N[C@@H](Cc2ccc(O)cc2)C(N)=O)cc1 (some centres unmarked) [Compound 16] | – | > 10 | > 10 | 100 | Cat Z^1 | – | –
3 | CC(C)C[C@H](NC(=O)C1OC1C(=O)NCCc1ccc(O)cc1)C(=O)N[C@@H](Cc1ccc(O)cc1)C(N)=O (some centres unmarked) [Compound 25] | 20 | 11 | 21 | > 10000 | Cat B | – | –
4 | CC(C)C[C@H](NC(=O)C1OC1C(=O)NCCCO)C(=O)N[C@@H](Cc1ccc(O)cc1)C(N)=O (some centres unmarked) [Compound 31] | 10 | 11 | 5.45 | 1100 | Cat B | – | –
5 | CC(C)C[C@H](NC(=O)[C@H]1OC1C(=O)O)C(=O)N[C@@H](Cc1ccc(O)cc1)C(N)=O (some centres unmarked) [Compound 40] | 20 | 0.2 | 5.45 | 100 | General | – | –
6 | CC(C)C[C@H](NC(=O)C1O[C@H]1C(=O)NCCCO)C(=O)N[C@@H](Cc1ccc(O)cc1)C(N)=O (some centres unmarked) [Compound 52] | 50 | > 50 | > 50 | 1800 | Cat B | retain similar potency for cathepsin B compared to parent compound JPM-565 | little or no activity against other cathepsin targets
7 | CC(C)C[C@H](NC(=O)C1OC1C(=O)N[C@@H](C)c1ccccc1)C(=O)N[C@@H](Cc1ccc(O)cc1)C(N)=O (some centres unmarked) [Compound 58] | – | – | – | – | Cat B | – | –
8 | CCOC(=O)C1OC1C(=O)N[C@@H](CC(C)C)C(=O)N[C@@H](Cc1ccc(O)cc1)C(N)=O (some centres unmarked) [Compound 59] | – | – | – | – | Cat B | – | –
9 | CC(C)C[C@H](NC(=O)C1OC1C(=O)O)C(=O)N[C@@H](Cc1ccc(O)cc1)C(N)=O (some centres unmarked) [Compound 60] | 400 | > 25 | > 25 | 100 | Cat B & Z | – | –
10 | CC(C)C[C@H](NC(=O)[C@H]1O[C@@H]1C(=O)NCCc1ccc(O)cc1)C(=O)NCCc1ccccn1 [Compound 63] | 310 | > 10 | > 10 | > 10000 | Cat B & Z | – | –
11 | CC(C)C[C@H](NC(=O)[C@H]1O[C@@H]1C(=O)NCCc1ccc(O)cc1)C(=O)NCc1cccc2ccccc12 [Compound 66] | 320 | 5.69 | 6.2 | 800 | General | – | –
12 | CC(C)C[C@H](NC(=O)[C@H]1OC1C(=O)NCCc1ccc(O)cc1)C(=O)NCCN1CCCCC1 (some centres unmarked) [Compound 67] | – | – | – | – | Cat B | – | –
13 | NC(=O)[C@H](Cc1ccc(O)cc1)NC(=O)[C@H](CC1CCCCC1)NC(=O)C1OC1C(=O)O (some centres unmarked) [Compound 74] | 1950 | > 25 | > 25 | 300 | Cat B & Z | – | –
14 | CCC[C@H](NC(=O)C1O[C@H]1C(=O)O)C(=O)N[C@@H](Cc1ccc(O)cc1)C(N)=O (some centres unmarked) [Compound 75] | 270 | > 25 | > 25 | 200 | Cat B & Z | – | –
15 | Cc1ccc(C[C@H](NC(=O)C2O[C@H]2C(=O)O)C(=O)N[C@@H](Cc2ccc(O)cc2)C(N)=O)cc1 (some centres unmarked) [Compound 76] | 6800 | > 25 | > 25 | 200 | Cat Z | – | –
16 | CCC[C@H](NC(=O)C1O[C@@H]1C(=O)O)C(=O)N[C@@H](Cc1ccc(O)cc1)C(N)=O (some centres unmarked) [Compound 77] | 30 | 0.45 | 0.74 | 100 | General | – | –
17 | CCC[C@H](NC(=O)C1O[C@H]1C(=O)NCC(=O)O)C(=O)N[C@@H](Cc1ccc(O)cc1)C(N)=O (some centres unmarked) [Compound 78] | 280 | > 10 | > 10 | 1000 | Cat B | – | –

Row | SMILES | IC50 (CatB) [nM] | IC50 (CatC) [µM] | IC50 (CatH) [µM] | IC50 (CatZ (Cathepsin Z)) [nM] | Target (cathepsin targets) | potency for cathepsin B compared to parent compound JPM-565 (cathepsin B) | activity against other cathepsin targets (other cathepsin targets)
18 | CCC[C@H](NC(=O)C1O[C@@H]1C(=O)NCC(=O)O)C(=O)N[C@@H](Cc1ccc(O)cc1)C(N)=O (some centres unmarked) [Compound 79] | 190 | 19.3 | 5.85 | 1300 | Cat B | – | –
19 | Cc1ccc(C[C@H](NC(=O)C2O[C@H]2C(=O)NCC(=O)O)C(=O)N[C@@H](Cc2ccc(O)cc2)C(N)=O)cc1 (some centres unmarked) [Compound 80] | > 10000 | > 10 | > 10 | 800 | Cat B & Z | – | –
20 | CCOC(=O)C1OC1C(=O)N(CC(=O)N[C@@H](Cc1ccc(O)cc1)C(N)=O)CC(C)C (some centres unmarked) [Compound 103] | – | – | – | – | Cat B | – | –
21 | CCC[C@H](NC(=O)[C@H]1O[C@@H]1C(=O)OCC)C(=O)NCc1cccc2ccccc12 [Compound 105] | – | – | – | – | General | – | –
22 | CCC[C@H](NC(=O)C1O[C@@H]1C(=O)NCCc1ccc(-c2ccccc2)cc1)C(=O)NCCc1ccccn1 (some centres unmarked) [Compound 106] | – | – | – | – | Cat B | – | –
23 | CCC[C@H](NC(=O)[C@H]1O[C@@H]1C(=O)NCCc1ccc(O)cc1)C(=O)NCc1cccc2ccccc12 [Compound 111] | – | – | – | – | Cat Z | – | –
24 | CCC[C@H](NC(=O)[C@H]1O[C@@H]1C(=O)O)C(=O)NCc1cccc2ccccc12 [Compound 114] | – | – | – | – | General | – | –
25 | CCC[C@H](NC(=O)[C@@H]1O[C@H]1C(=O)O)C(=O)NCc1cccc2ccccc12 [Compound 115] | – | – | – | – | Cat Z | – | –
26 | CCOC(=O)C1OC1C(=O)N[C@@H](Cc1ccc(C)cc1)C(=O)NCc1cccc2ccccc12 (some centres unmarked) [Compound 119] | – | – | – | – | Cat Z | – | –
27 | CCC[C@H](NC(=O)C1O[C@@H]1C(=O)NCCc1ccc(O)cc1)C(=O)NCCc1ccccn1 (some centres unmarked) [Compound 120] | – | – | – | – | Cat B | – | –
28 | Cc1ccc(C[C@H](NC(=O)C2O[C@@H]2C(=O)NCC(=O)O)C(=O)NCc2cccc3ccccc23)cc1 (some centres unmarked) [Compound 121] | – | – | – | – | Cat Z | – | –
29 | CCOC(=O)[C@H]1O[C@@H]1C(=O)N[C@@H](Cc1ccc(C)cc1)C(=O)NCc1cccc2ccccc12 [Compound 122] | – | – | – | – | Cat Z | – | –
30 | CCC[C@H](NC(=O)C1O[C@@H]1C(=O)OCC)C(=O)NCCc1ccccn1 (some centres unmarked) [Compound 123] | – | – | – | – | General | – | –
31 | CCC[C@H](NC(=O)[C@@H]1OC1C(=O)OCC)C(=O)NCCc1ccccn1 (some centres unmarked) [Compound 124] | – | – | – | – | General | – | –
32 | CCOC(=O)C1O[C@H]1C(=O)N[C@@H](Cc1ccc(C)cc1)C(=O)NCCc1ccccn1 (some centres unmarked) [Compound 126] | – | – | – | – | General | – | –
33 | CCOC(=O)[C@H]1O[C@@H]1C(=O)N[C@@H](CC(C)C)C(=O)NCCc1ccc(O)cc1 [JPMOEt, reference compound] | 40 | 8.9 | 4.65 | 200 | General | – | –
